The text below walks through data of US9474275B2, “Cyanoenamines and their use as fungicides” (priority 2010, dated 2016).

The structures appear in SMILES notation.

For series [1] the following is noted: method [a]: LC-MS at pH 2.7, 0.1% formic acid in water / acetonitrile, linear gradient 10% to 95% acetonitrile.
Method: Measurement of log P values was performed according EEC directive 79/831 Annex V.A8 by HPLC (High Performance Liquid Chromatography) on reversed phase columns with the following methods:
^[a] measurement of LC-MS was done at pH 2.7 with 0.1% formic acid in water and with acetonitrile (contains 0.1% formic acid) as eluent with a linear gradient from 10% acetonitrile to 95% acetonitrile.
In the next series the test system is Phytophthora infestans. It is filed as in vivo. The note with it: tomato plants, preventive spray, 500 ppm of active ingredient, evaluated 7 days after inoculation; 0% = untreated control, 100% = no disease.

In the case of `CCCC(=O)C(C#N)=C(NC(C)CC(C)C)c1cn(C)nc1C(F)F` (racemic) [Compound 127], the LogP in series [1] is 3.63^[a].
Regarding `CC(NC(=C(C#N)C(=O)c1ccco1)c1cccnc1Cl)C1CC1` (stereo not drawn) [Compound 55], the LogP in series [1] is 2.80^[a].
The same measure, in the same setting: the figure for `CC(C)C(C)NC(=C(C#N)C(=O)C1(Cl)CC1)c1cccnc1Cl` (stereo not drawn) [Compound 3] is 3.44^[a].
With `CCC(=O)C(C#N)=C(NC(C)C1CC1)c1cn(C)nc1C(F)F` (stereo not drawn) [Compound 69], the LogP in series [1] was 2.73^[a].
Turning to `CCCC(=O)C(C#N)=C(NC1(CC2CC2)CC1)c1cccnc1Cl` [Compound 101], the efficacy in the series on Phytophthora infestans stood at 95%. Further, the LogP in series [1] was 3.79^[a].
The molecule `CCCC(=O)C(C#N)=C(NC1(CC2CC2)CC1)c1cn(C)nc1C(F)F` [Compound 119] showed an efficacy with Phytophthora infestans of 93%. In addition, the LogP in series [1] was 3.44^[a].
`CC(NC(=C(C#N)C(=O)CC1CC1)c1cccnc1Cl)C1CC1` (stereo not drawn) [Compound 54]: the LogP in series [1] is 3.31^[a].
Regarding `CC(C)CC(=O)C(C#N)=C(NC(C)C(C)C)c1cccnc1Cl` (stereo not drawn) [Compound 40], in the series on Phytophthora infestans, the efficacy stood at 75%. Moreover, the LogP in series [1] is 3.90^[a].
Turning to `COC(C)C(=O)C(C#N)=C(NC(C)C(C)C)c1cccnc1Cl` (stereo not drawn) [Compound 67], the LogP in series [1] was 2.70^[a].
`COCC(=O)C(C#N)=C(NC(C)c1ccccn1)c1cccnc1Cl` (stereo not drawn) [Compound 1] showed an efficacy with Phytophthora infestans of 93%. In addition, in series [1], the LogP was 1.78^[a].
Consider `CCCC(=O)C(C#N)=C(NC1CC1CC)c1cccnc1Cl` (stereo not drawn) [Compound 31], for which, in series [1], the LogP is 3.51^[a].
In the case of `CCCC(=O)C(C#N)=C(NC(C)C(C)C)c1cc(C)nn1C(F)F` (stereo not drawn) [Compound 92], in series [1], the LogP was 3.92^[a].
As to `CC(C)C(C)NC(=C(C#N)C(=O)C1CCC1)c1cccnc1Cl` (stereo not drawn) [Compound 44], in the series with Phytophthora infestans, the efficacy was 85%. In series [1], the LogP is 3.80^[a].
Turning to `COCC(=O)C(C#N)=C(NC(C)C1(Cl)CC1)c1cccnc1Cl` (stereo not drawn) [Compound 36], in the series on Phytophthora infestans, the efficacy was determined as 70%. Moreover, the LogP in series [1] was 2.44^[a].
For `CC(C)C(C)NC(=C(C#N)C(=O)C1CCC1)c1cn(C)nc1C(F)F` (stereo not drawn) [Compound 34], the efficacy in the series on Phytophthora infestans worked out at 90%. The LogP in series [1] was 3.46^[a].
In the series on Phytophthora infestans, `COCC(=O)C(C#N)=C(NC(C)c1nccs1)c1cccnc1Cl` (stereo not drawn) [Compound 77] showed an efficacy of 93%.
As to `CCCC(=O)C(C#N)=C(NC(C)CCC)c1cccnc1Cl` (racemic) [Compound 117], the efficacy with Phytophthora infestans came out at 80%. The LogP in series [1] was 3.65^[a].
Regarding `CC(C)C(C)NC(=C(C#N)C(=O)CCl)c1cccnc1Cl` (stereo not drawn) [Compound 45], the LogP in series [1] is 3.02^[a].
As to `CC(NC(=C(C#N)C(=O)C1CCC1)c1cccnc1Cl)C1CC1` (stereo not drawn) [Compound 12], the LogP in series [1] is 3.44^[a].
Regarding `COCCC(=O)C(C#N)=C(NC(C)C(C)C)c1cn(C)nc1C(F)F` (stereo not drawn) [Compound 62], the efficacy in the series on Phytophthora infestans is on record as 75%. In series [1], the LogP is 2.64^[a].
In the case of `CC(NC(=C(C#N)C(=O)C1CCC1)c1cn(C)nc1C(F)F)C1CC1` (stereo not drawn) [Compound 70], the efficacy in the series with Phytophthora infestans is recorded as 80%. The LogP in series [1] was 3.25^[a].
As for `CCCC(=O)C(C#N)=C(NC(C)CCc1ccccc1)c1cn(C)nc1C(F)F` (racemic) [Compound 128], the LogP in series [1] is 3.83^[a].
On the same count and under the same terms, for `COCC(=O)C(C#N)=C(NC(C)C(C)C)c1cccnc1Cl` (stereo not drawn) [Compound 41] the value was 2.48^[a].
Molecule `CCCC(=O)C(C#N)=C(NC(C)C1(C)CC1)c1cn(C)nc1C(F)F` (racemic) [Compound 121] returned an efficacy with Phytophthora infestans of 93%. The LogP in series [1] is 3.33^[a].
Turning to `COCC(=O)C(C#N)=C(NC(C)c1nccs1)c1cn(C)nc1C(F)F` (stereo not drawn) [Compound 82], in series [1], the LogP was 1.76^[a].
On to `Cc1cc(C(NC(C)C(C)C)=C(C#N)C(=O)CC2CC2)n(C(F)F)n1` (stereo not drawn) [Compound 93], for which the LogP in series [1] was 3.87^[a].
On to `CCCC(=O)C(C#N)=C(NC(C)c1nc(C)c(C)s1)c1cccnc1Cl` (racemic) [Compound 105], for which the LogP in series [1] was 3.02^[a].
Consider `CCCC(=O)C(C#N)=C(NC(C)C(=O)NC)c1cn(C)nc1C(F)F` (stereo not drawn) [Compound 109], for which, in series [1], the LogP was 1.79^[a].
For the molecule `CC(C)C(C)NC(=C(C#N)C(=O)C1CC1)c1cccnc1Cl` (stereo not drawn) [Compound 71], the LogP in series [1] is 3.39^[a].
Take `CC(C)C(C)NC(=C(C#N)C(=O)CCl)c1cn(C)nc1C(F)F` (stereo not drawn) [Compound 32]: the LogP in series [1] was 2.86^[a].
Still for that read-out and setting: for `COCCC(=O)C(C#N)=C(NC(C)C(C)C)c1cccnc1Cl` (stereo not drawn) [Compound 65] the value was 2.78^[a].
As to `CC(C)C(=O)C(C#N)=C(NC(C)C(C)C)c1cccnc1Cl` (stereo not drawn) [Compound 9], in series [1], the LogP is 3.60^[a].
`CCCC(=O)C(C#N)=C(NC(C)c1nccs1)c1cc(C)nn1C(F)F` (stereo not drawn) [Compound 94]: the LogP in series [1] was 3.11^[a].
For the molecule `Cc1cc(C(NC(C)c2nccs2)=C(C#N)C(=O)CC2CC2)n(C(F)F)n1` (stereo not drawn) [Compound 97], the LogP in series [1] was 3.09^[a].
Turning to `CC(C)C(C)NC(=C(C#N)C(=O)CN1CCCC1)c1cccnc1Cl` (stereo not drawn) [Compound 35], the LogP in series [1] is 1.52^[a].
As for `CC(C)C(C)NC(=C(C#N)C(=O)CNC1CC1)c1cn(C)nc1C(F)F` (stereo not drawn) [Compound 58], the LogP in series [1] was 1.78^[a].
Take `CC(NC(=C(C#N)C(=O)C1CCCC1)c1cccnc1Cl)C1CC1` (stereo not drawn) [Compound 14]: in series [1], the LogP is 3.83^[a].
Still for that read-out and setting: the figure for `COCC(=O)C(C#N)=C(NC(C)C1CC1)c1cccnc1Cl` (stereo not drawn) [Compound 49] is 2.23^[a]; for `CCCC(=NOC)C(C#N)=C(NC(C)C(C)C)c1cn(C)nc1C(F)F` (stereo not drawn) [Compound 79] it is 4.24^[a].
Turning to `CC(NC(=C(C#N)C(=O)C1CC1)c1cccnc1Cl)C1CC1` (stereo not drawn) [Compound 42], the LogP in series [1] was 3.06^[a].
On to `CCCC(=O)C(C#N)=C(NC(C)CC1CC1)c1cccnc1Cl` (racemic) [Compound 118], for which the LogP in series [1] is 3.63^[a].
Turning to `CCC(=O)C(C#N)=C(NC(C)C1CC1)c1cccnc1Cl` (stereo not drawn) [Compound 22], the LogP in series [1] was 2.88^[a].
For `CNCC(=O)C(C#N)=C(NC(C)C(C)C)c1cccnc1Cl` (stereo not drawn) [Compound 15], the LogP in series [1] was 1.50^[a].
In the case of `CC(C)C(C)NC(=C(C#N)C(=O)CN1CCCC1)c1cn(C)nc1C(F)F` (stereo not drawn) [Compound 66], the LogP in series [1] was 1.31^[a].
The same measure, in the same setting: for `CCNCC(=O)C(C#N)=C(NC(C)C(C)C)c1cn(C)nc1C(F)F` (stereo not drawn) [Compound 60] the value was 1.63^[a].
For the molecule `CCCC(=O)C(C#N)=C(NC(C)COC)c1cc(C)nn1C(F)F` (stereo not drawn) [Compound 95], the LogP in series [1] was 3.13^[a].
Consider `CC(C)C(C)NC(=C(C#N)C(=O)C1CCCCC1)c1cccnc1Cl` (stereo not drawn) [Compound 53], for which the LogP in series [1] is 4.50^[a].
Same read-out and setting: the figure for `CC(C)C(C)NC(=C(C#N)C(=O)CCCCl)c1cccnc1Cl` (stereo not drawn) [Compound 74] is 3.63^[a]; for `CC(C)OCC(=O)C(C#N)=C(NC(C)C(C)C)c1cccnc1Cl` (stereo not drawn) [Compound 19] it is 3.19^[a]; for `CC(C)C(C)NC(=C(C#N)C(=O)c1ccco1)c1cccnc1Cl` (stereo not drawn) [Compound 48] it is 3.11^[a].
Turning to `CSCC(=O)C(C#N)=C(NC(C)C(C)C)c1cccnc1Cl` (stereo not drawn) [Compound 46], the LogP in series [1] is 3.13^[a].
For the molecule `CC(C)C(C)NC(=C(C#N)C(=O)CN(C)C)c1cccnc1Cl` (stereo not drawn) [Compound 13], the LogP in series [1] is 1.39^[a].
`CC(C)C(C)NC(=C(C#N)C(=O)CNC1CC1)c1cccnc1Cl` (stereo not drawn) [Compound 39]: in series [1], the LogP was 1.74^[a].
Take `CCC(=O)C(C#N)=C(NC1CC1CC)c1cccnc1Cl` (stereo not drawn) [Compound 68]: the LogP in series [1] is 3.13^[a].
On the same count and under the same terms, the figure for `CCCC(=O)C(C#N)=C(NC(C)Cc1ccccc1)c1cn(C)nc1C(F)F` (stereo not drawn) [Compound 111] is 3.55^[a]; for `CNCC(=O)C(C#N)=C(NC(C)C(C)C)c1cn(C)nc1C(F)F` (stereo not drawn) [Compound 50] it is 1.60^[a].
Still for that read-out and setting: for `CC(C)C(C)NC(=C(C#N)C(=O)C1CC1C)c1cccnc1Cl` (stereo not drawn) [Compound 61] the value was 3.80^[a].
Take `CC(C)C(C)NC(=C(C#N)C(=O)C1CCCC1)c1cn(C)nc1C(F)F` (stereo not drawn) [Compound 78]: in series [1], the LogP was 3.81^[a].
`CCCC(=O)C(C#N)=C(NC(C)Cc1ccccc1)c1cccnc1Cl` (stereo not drawn) [Compound 108]: the LogP in series [1] is 3.83^[a].
For the molecule `CC(C)C(C)NC(=C(C#N)C(=O)C1CCCCO1)c1cccnc1Cl` (stereo not drawn) [Compound 6], the LogP in series [1] was 3.00^[a].
For `CCCCC(=O)C(C#N)=C(NC1CC1CC)c1cccnc1Cl` (stereo not drawn) [Compound 38], the LogP in series [1] was 3.94^[a].
As to `CCCC(=O)C(C#N)=C(NC(C)C1CC1)c1cccnc1Cl` (stereo not drawn) [Compound 43], in series [1], the LogP was 3.25^[a].
As for `CCCC(=O)C(C#N)=C(NC(C)c1ccco1)c1cccnc1Cl` (racemic) [Compound 99], the LogP in series [1] was 3.31^[a].
In the case of `COCC(C)NC(=C(C#N)C(=O)CC1CC1)c1cc(C)nn1C(F)F` (stereo not drawn) [Compound 96], the LogP in series [1] is 3.11^[a].
On to `CCC(F)(F)C(=O)C(C#N)=C(NC(C)C(C)C)c1cccnc1Cl` (stereo not drawn) [Compound 37], for which the LogP in series [1] is 3.55^[a].
For the molecule `CCC(C)C(=O)C(C#N)=C(NC(C)C(C)C)c1cccnc1Cl` (stereo not drawn) [Compound 76], the LogP in series [1] was 3.9^[a].
`CC(C)C(C)NC(=C(C#N)C(=O)C1CCCC1)c1cccnc1Cl` (stereo not drawn) [Compound 7]: the LogP in series [1] is 4.23^[a].
Regarding `CC(NC(=C(C#N)C(=O)C1CCCC1)c1cn(C)nc1C(F)F)C1CC1` (stereo not drawn) [Compound 21], in series [1], the LogP is 3.58^[a].
Consider `CCCC(=O)C(C#N)=C(NC(C)CC(C)C)c1cccnc1Cl` (racemic) [Compound 115], for which the LogP in series [1] is 3.99^[a].
For the molecule `CC(NC(=C(C#N)C(=O)Cc1ccccc1)c1cccnc1Cl)C1CC1` (stereo not drawn) [Compound 8], in series [1], the LogP is 3.23^[a].
Still for that read-out and setting: for `CCNCC(=O)C(C#N)=C(NC(C)C(C)C)c1cccnc1Cl` (stereo not drawn) [Compound 57] the value was 1.68^[a].
As for `CCCC(=O)C(C#N)=C(NC(C)c1nc(C)c(C)s1)c1cn(C)nc1C(F)F` (racemic) [Compound 123], in series [1], the LogP was 2.92^[a].
The same measure, in the same setting: the figure for `CC(C)C(C)NC(=C(C#N)C(=O)Cc1ccccc1)c1cccnc1Cl` (stereo not drawn) [Compound 29] is 3.85^[a].
